Assays:
[1] = target: T1, recombinant BACE1 protein (Homo sapiens, UniProt P56817); test: BACE1 biochemical FRET based assay - Method 1; settings: BACE1, 120 minutes at room temperature, pH 5.0; read-out: Biochemical FRET based assay - Method 1 pIC50 (converted)
T1 construct: recombinant BACE1 protein in a final concentration of 1 μg/ml
From the text: (§1) This assay is a Fluorescence Resonance Energy Transfer Assay (FRET) based assay. The substrate for this assay is an APP derived 13 amino acids peptide that contains the ‘Swedish’ Lys-Met/Asn-Leu mutation of the amyloid precursor protein (APP) beta-secretase cleavage site. This substrate also contains two fluorophores: (7-methoxycoumarin-4-yl) acetic acid (Mca) is a fluorescent donor with excitation wavelength at 320 nm and emission at 405 nm and 2,4-Dinitrophenyl (Dnp) is a proprietary quencher acceptor. […] Upon cleavage by BACE1, the fluorophore Mca is separated from the quenching group Dnp, restoring the full fluorescence yield of the donor. The increase in fluorescence is linearly related to the rate of proteolysis.
Briefly in a 384-well format recombinant BACE1 protein in a final concentration of 1 μg/ml is incubated for 120 minutes at room temperature with 10 μm substrate in incubation buffer (40 mM Citrate buffer pH 5.0, 0.04% PEG, 4% DMSO) in the absence or presence of compound. Next the amount of proteolysis is directly measured by fluorescence measurement at T=0 and T=120 (excitation at 320 nm and emission at 405 nm). Results are expressed in RFU (Relative Fluorescence Units), as difference between T120 and T0.
(§2) A best-fit curve is fitted by a minimum sum of squares method to the plot of % Controlmin versus compound concentration. From this an IC50 value (inhibitory concentration causing 50% inhibition of activity) can be obtained.

[2] = test system: Abeta 1-42 produced and secreted into the medium of human neuroblastoma SKNBE2 cells; test: Cellular αLisa assay in SKNBE2 cells, Abeta 42; assay type: cell-based; settings: SKNBE2 cells expressing hAPP695, incubated for 18 hours; for IC50: Homo sapiens, SKNBE2, 18 h, read-out: Cellular αLisa assay in SKNBE2 cells Abeta 42 pIC50 (converted)
Experimental: In two αLisa assays the levels of Abeta 1-42 produced and secreted into the medium of human neuroblastoma SKNBE2 cells are quantified. The assay is based on the human neuroblastoma SKNBE2 expressing the wild type Amyloid Precursor Protein (hAPP695). The compounds are diluted and added to these cells, incubated for 18 hours and then measurements of Abeta 1-42 are taken. Abeta 1-42 are measured by sandwich αLisa. αLisa is a sandwich assay using biotinylated antibody AbN/25 attached to streptavidin coated beads and antibody cAb42/26 conjugated acceptor beads for the detection of Abeta 1-42 respectively. In the presence of Abeta 1-42, the beads come into close proximity. The excitation of the donor beads provokes the release of singlet oxygen molecules that trigger a cascade of energy transfer in the acceptor beads, resulting in light emission. Light emission is measured after 1 hour incubation (excitation at […] and emission at 615 nm).
as §2

[3] = test system: Abetatotal in human neuroblastoma SKNBE2 cells; test: Cellular αLisa assay in SKNBE2 cells, Abetatotal; assay type: cell-based; settings: SKNBE2 cells expressing hAPP695, incubated for 18 hours; for IC50: Homo sapiens, SKNBE2, 18 h, read-out: Cellular αLisa assay in SKNBE2 cells Abetatotal pIC50 (converted)
[4] = target: T2, recombinant BACE2 protein (Homo sapiens, UniProt Q9Y5Z0); test: BACE2 biochemical FRET based assay; settings: BACE2, 450 minutes at room temperature, pH 5.0; read-out: Biochemical FRET based assay pIC50 (converted)
T2 construct: recombinant BACE2 protein in a final concentration of 0.4 μg/ml
T2 sequence (Q9Y5Z0 63-518): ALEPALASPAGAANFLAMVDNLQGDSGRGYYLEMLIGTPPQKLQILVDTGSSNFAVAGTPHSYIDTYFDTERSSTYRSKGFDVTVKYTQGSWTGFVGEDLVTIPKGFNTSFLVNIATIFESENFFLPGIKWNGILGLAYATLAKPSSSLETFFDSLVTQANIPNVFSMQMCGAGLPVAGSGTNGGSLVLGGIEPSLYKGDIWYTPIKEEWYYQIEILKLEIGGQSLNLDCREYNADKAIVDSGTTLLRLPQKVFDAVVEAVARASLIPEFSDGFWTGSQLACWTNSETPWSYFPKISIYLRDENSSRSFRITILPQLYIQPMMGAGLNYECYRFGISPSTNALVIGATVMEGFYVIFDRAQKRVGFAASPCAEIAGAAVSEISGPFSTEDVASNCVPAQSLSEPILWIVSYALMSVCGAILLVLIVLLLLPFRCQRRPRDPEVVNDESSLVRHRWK
From the text: as §1, with “assay” for “assay is an APP derived 13 amino acids peptide that”, “the beta-secretase,” for “BACE1,”
Briefly in a 384-well format recombinant BACE2 protein in a final concentration of 0.4 μg/ml is incubated for 450 minutes at room temperature with 10 μM substrate in incubation buffer (50 mM Citrate buffer pH 5.0, 0.05% PEG, no DMSO) in the absence or presence of compound. Next the amount of proteolysis is directly measured by fluorescence measurement at T=0 and T=450 (excitation at 320 nm and emission at 405 nm). Results are expressed in RFU (Relative Fluorescence Units), as difference between T450 and T0.
as §2

[5] = test system: Abeta 1-37, Abeta 1-38, Abeta 1-40 and Abeta 1-42 in CSF; test: Pharmacology in the Beagle dog: beta-amyloid profile in cerebrospinal fluid (CSF) after a single dose; assay type: in vivo
Experimental: Test compounds were tested to evaluate the effect on the beta-amyloid profile in cerebrospinal fluid (CSF) of dogs after a single dose, in combination with pharmacokinetic (PK) follow up and limited safety evaluation.
For each of compound 20, 21, 22 or 41, four beagle dogs (2 males, 2 females) were dosed with vehicle (1 ml/kg of an aqueous solution of 20% cyclodextrin) and 12 beagle dogs (2 males and 2 females per dosage group) were dosed with test compounds as follows:
In the case of compounds 39, 33 and 31, two beagle dogs (1 male, 1 female) were dosed with vehicle (1 ml/kg of an aqueous solution of 20% cyclodextrin) and 4 beagle dogs (2 males and 2 females) were dosed with test compound […] (0.31 mg/kg in 0.31 mg/ml of an aqueous 20% cyclodextrin solution) on an empty stomach.
Eight hours after dosing the animals got access to their regular meal for 30 minutes. Blood was taken for PK follow up (0.5, 1, 2, 4, 8, 25 and 49 hours) and serum samples for biochemistry were taken before and at 8 and 25 h after dosing. The CSF samples were used for measurement of Abeta 1-37, Abeta 1-38, Abeta 1-40 and Abeta 1-42.

[6] = Canis lupus familiaris, single dose 0.08 mg/kg, 8 h post dosing, read-out: % Decrease in Abeta 1-42 at 8 h post dosing compared to own baseline
[7] = Canis lupus familiaris, single dose 0.31 mg/kg, 8 h post dosing, read-out: % Decrease in Abeta 1-42 at 8 h post dosing compared to own baseline
[8] = single dose 0.31 mg/kg, 25 h post dosing (b)

T1 sequence (P56817 46-501): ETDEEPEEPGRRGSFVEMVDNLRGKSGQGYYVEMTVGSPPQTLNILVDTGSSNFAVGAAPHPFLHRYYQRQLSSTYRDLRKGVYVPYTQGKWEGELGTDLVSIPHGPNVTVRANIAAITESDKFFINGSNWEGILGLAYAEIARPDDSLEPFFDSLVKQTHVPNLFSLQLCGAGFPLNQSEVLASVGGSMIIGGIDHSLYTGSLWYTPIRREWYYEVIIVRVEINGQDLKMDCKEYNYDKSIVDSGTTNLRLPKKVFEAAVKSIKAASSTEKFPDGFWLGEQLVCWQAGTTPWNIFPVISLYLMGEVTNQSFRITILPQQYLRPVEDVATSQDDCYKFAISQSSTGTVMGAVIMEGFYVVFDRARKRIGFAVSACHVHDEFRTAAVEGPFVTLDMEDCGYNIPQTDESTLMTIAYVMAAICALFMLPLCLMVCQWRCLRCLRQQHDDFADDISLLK

Structure (SMILES) | IC50 [1] [nM] | IC50 [4] [nM] | IC50 [2] [nM] | IC50 [3] [nM] | further results
CC(C)S(=O)(=O)C1(C)CCC(CF)(c2cc(NC(=O)c3ccc(F)cn3)ccc2F)N=C1N (single isomer, unassigned) [Compound 34] | 3630 | 4270 |  |  | Cellular αLisa assay in SKNBE2 cells Abeta 42 pIC50 [2]: 5.56; Cellular αLisa assay in SKNBE2 cells Abetatotal pIC50 [3]: 5.72
Cc1cc(C#N)cnc1C(=O)Nc1ccc(F)c([C@]2(CF)CC[C@@](C)(S(C)(=O)=O)C(N)=N2)c1 [Compound 21] | 1.38 | 5.01 | 0.813 |  | inhibition in vivo at 0.08 mg/kg [5, 6]: 49%; inhibition in vivo at 0.31 mg/kg [5, 7]: 78%; inhibition in vivo at 0.63 mg/kg ([5]; Canis lupus familiaris, single dose 0.63 mg/kg, 8 h post dosing, read-out: % Decrease in Abeta 1-42 at 8 h post dosing compared to own baseline): 70%; % Decrease in Abeta 1-42 at 24 h^(a) or 25 h^(b) post dosing compared to own baseline [5, 8]: 69^(b) %
CC1(S(C)(=O)=O)CCC(CF)(c2cc(NC(=O)c3ccc(C#N)cn3)ccc2F)N=C1N (stereo not shown) [Compound 22] | 1.12 | 5.25 | 1.15 |  | inhibition in vivo at 0.08 mg/kg [5, 6]: 50%; inhibition in vivo at 0.31 mg/kg [5, 7]: 78%; % Decrease in Abeta 1-42 at 24 h^(a) or 25 h^(b) post dosing compared to own baseline ([5]; single dose 0.08 mg/kg, 24 h post dosing (a)): 54^(a) %; % Decrease in Abeta 1-42 at 49 h post dosing compared to own baseline ([5]; single dose 0.31 mg/kg): 71%
C[C@@]1(c2cc(NC(=O)c3ccc(F)cn3)ccc2F)CC[C@@](CF)(S(C)(=O)=O)C(N)=N1 [Compound 26] | 14.8 | 11 | 5.25 | 4.07 | 
COc1cnc(C(=O)Nc2ccc(F)c([C@@]3(C)N=C(N)[C@](C)(C#N)C[C@]3(C)F)c2)cn1 [Compound 27] | 41.7 | 389 | 17.4 | 16.2 | 
COc1cnc(C(=O)Nc2ccc(F)c([C@@]3(C)N=C(N)[C@@](C)(C#N)C[C@]3(C)F)c2)cn1 [Compound 28] | 1150 | > 10000 | 550 | 501 | 
CC[C@]1(S(C)(=O)=O)CC[C@@](CF)(c2cc(NC(=O)c3ccc(F)cn3)ccc2F)N=C1N [Compound 29a] | 871 | 776 | 851 | 182 | 
CCC1(S(=O)(=O)CC)CCC(CF)(c2cc(NC(=O)c3ccc(F)cn3)ccc2F)N=C1N (stereo not shown) [Compound 30] | 15.8 | 24.5 | 15.8 | 13.5 | 
CC1(S(C)(=O)=O)CCC(CF)(c2cc(NC(=O)c3cnc(OCC(F)F)cn3)ccc2F)N=C1N (stereo not shown) [Compound 35] | 3.72 | 44.7 | 3.09 | 2.82 | 
CC1(S(C)(=O)=O)CCC(CF)(c2cc(NC(=O)c3ncc(OC(F)F)cn3)ccc2F)N=C1N (stereo not shown) [Compound 36] | 4.27 | 28.2 | 4.37 | 4.37 | 
CC1(S(C)(=O)=O)CCC(CF)(c2cc(NC(=O)c3ncc(F)cn3)ccc2F)N=C1N (stereo not shown) [Compound 38] | 3.89 | 4.17 | 7.08 |  | 
Cc1nc(C(=O)Nc2ccc(F)c(C3(CF)CCC(C)(S(C)(=O)=O)C(N)=N3)c2)co1 (stereo not shown) [Compound 40] | 4.57 | 3.31 | 1.86 |  | 
C[C@@]1(S(C)(=O)=O)CC[C@@](CF)(c2cc(NC(=O)c3cnc(OCF)cn3)ccc2F)N=C1N [Compound 41] | 2.19 | 16.6 | 1.62 |  | inhibition in vivo at 0.16 mg/kg ([5]; Canis lupus familiaris, single dose 0.16 mg/kg, 8 h post dosing, read-out: % Decrease in Abeta 1-42 at 8 h post dosing compared to own baseline): 71%; inhibition in vivo at 0.31 mg/kg [5, 7]: 78%; inhibition in vivo at 1.25 mg/kg ([5]; Canis lupus familiaris, single dose 1.25 mg/kg, 8 h post dosing, read-out: % Decrease in Abeta 1-42 at 8 h post dosing compared to own baseline): 89%; % Decrease in Abeta 1-42 at 24 h^(a) or 25 h^(b) post dosing compared to own baseline ([5]; single dose 0.16 mg/kg, 25 h post dosing (b)): 26^(b) %; % Decrease in Abeta 1-42 at 24 h^(a) or 25 h^(b) post dosing compared to own baseline [5, 8]: 49^(b) %; % Decrease in Abeta 1-42 at 49 h post dosing compared to own baseline ([5]; single dose 1.25 mg/kg): 41%
CC1(S(C)(=O)=O)CCC(CF)(c2cc(NC(=O)c3cnc(C(F)F)cn3)ccc2F)N=C1N (stereo not shown) [Compound 42] | 3.8 | 22.4 | 2.4 |  | 
CC1(S(C)(=O)=O)CCC(CF)(c2cc(NC(=O)c3ncc(C(F)(F)F)cn3)ccc2F)N=C1N (stereo not shown) [Compound 43] | 9.12 | 64.6 | 4.47 |  | 
CC1(S(C)(=O)=O)CCC(CF)(c2cc(NC(=O)c3ncc(Cl)cn3)ccc2F)N=C1N (stereo not shown) [Compound 44] | 3.63 | 3.39 | 1.15 |  | 
COc1cnc(C(=O)Nc2ccc(F)c(C3(CF)CCC(C)(S(C)(=O)=O)C(N)=N3)c2)nc1 (stereo not shown) [Compound 45] | 3.16 | 13.5 | 3.24 |  | 
C[C@@]1(S(C)(=O)=O)CC[C@@](CF)(c2cc(NC(=O)c3ccc(F)cn3)cc(F)c2F)N=C1N [Compound 47] | 3.55 | 4.37 | 16.6 |  | 
CO[C@@H]1C[C@@](C)(S(C)(=O)=O)C(N)=N[C@]1(C)c1cc(NC(=O)c2cnc(OCF)cn2)ccc1F [Compound 48a] | 24 | 447 | 16.6 |  | 
CO[C@H]1C[C@@](C)(C#N)C(N)=N[C@]1(C)c1cc(NC(=O)c2cnc(OCF)cn2)ccc1F [Compound 49a] | 33.9 | 324 | 17 |  | 

— US20180334447A1, “2,3,4,5-TETRAHYDROPYRIDIN-6-AMINE DERIVATIVES” (JANSSEN PHARMACEUTICA NV, priority 2015, published 2018)
